Where two headings read alike, the source gives them in different places.
Tests used:
[1] = test system: platelet-rich plasma (PRP); test: Platelet aggregation inhibition test (ex vivo PRP after oral administration); assay type: in vivo; conditions: guinea pigs, blood one hour after administration; for Platelet aggregation inhibition rate (%) Collagen: collagen (2.5 µg/mg); for Platelet aggregation inhibition rate (%) Arachidonic acid: arachidonic acid (0.1 mM)
Method: A test was conducted using male S1c:Hartley guinea pigs, which were 5 to 7 weeks old and had body weights of from 274 to 554 g, in groups each of which consisted of five guinea pigs. […] One hour after the administration, blood was collected from the abdominal aorta, and a platelet-rich plasma (PRP) was prepared. […]

[2] = Acute toxicity (single intravenous shot, approximate LD50); conditions: mouse, in vivo, male S1C:ICR mice, single shot into caudal vein
Method: A test was conducted using male S1C:ICR mice, which were 6 to 7 weeks old and had body weights of from 18 to 36 g, in groups each which consisted of 3 mice.
Predetermined amounts of compounds according to the present invention and a comparative drug (vinpocetine phosphate), each of which had been dissolved in a 5% aqueous solution of glucose, were administered as single shots into the caudal veins of the mice, and the mice were then observed to determine whether they remained under normal conditions or died. Upon expiration of an observation period, their approximate LD50 values were calculated by the provit method.

[3] = test system: superior mesenteric artery; test: Vascular smooth muscle relaxing activity (potassium chloride-contracted helical artery preparation); design: species or system rabbit; conditions: read-out: Vascular smooth muscle relaxing activity (ED50)
Method: Each rabbit was sacrificed under exsanguination, and an incision was then made in the flank thereof. […] After this preparation cut was caused to contract with potassium chloride to maintain it under predetermined tension, a given test compound was added cumulatively.

[4] = test system: washed platelets; test: Platelet aggregation inhibiting activity (washed platelets, collagen, nephelometric analysis); assay type: cell-based, normal volunteer; conditions: Homo sapiens, read-out: Platelet aggregation inhibiting activity (IC50)
Method: Blood, which had been collected from a normal volunteer and had immediately been mixed with 1/10 volume of a 0.38% agueous solution of sodium citrate, was converted into a platelet-rich plasma (PRP) by centrifugation (700 x G, 10 minutes). To the PRP, 1/6 volume of the ACD solution (2.2% sodium citrate, 0.8% citric acid, 2.2% glucose - prepared before use) was added, followed by centrifugation (1,500 x G, 10 minutes). A platelet pellet so obtained was suspended in a modified HEPES Tyrode solution (135 mM sodium chloride, 2.7 mM potassium chloride, 1 mM magnesium chloride, 0.1 mg/mℓ glucose, 20 mM HEPE; pH 7.4). After 1/6 volume of the ACD solution was added to the suspension, further centrifugation was conducted (1,500 x G, 5 minutes). A platelet pellet so obtained was suspended in the modified HEPES Tyrode solution, whereby a washed platelet suspension containing about 300,000 platelets/µℓ therein was obtained.
Into 270-µℓ aliquots of the washed platelet suspension obtained above, 3-µℓ aliquots of solutions of a given test compound at varied concentrations in an appropriate solvent were added, respectively. The resulting mixtures were each preheated at 37°C for 2 minutes and, subsequent to the addition of 30 µℓ of a 20 µg/mℓ solution of collagen, an absorbance was measured by a 4-channel aggregometer ("HEMA Tracer 601"; manufactured by Nicoh Bioscience Co., Ltd.).
As a control, an absorption at the time of maximum aggregation by collagen in the presence of a solvent making use of a given test compound was assumed to be 100 whereas an absorbance before the addition of collagen was assumed to be 0. An inhibition rate (%) was then calculated from an absorbance at the time of maximum aggregation by collagen when the given test compound was added, and a concentration (µM) of the given test compound which achieves 50% inhibition was expressed as "IC50".

[5] = test system: Vertebral blood flow and femoral blood flow; test: Blood flow enhancement test (anesthetized beagles, electromagnetic flow probe); assay type: in vivo; conditions: femoral vein administration
Method: A test was conducted using male beagles, which were 9 to 13 months old, had body weights of from 9 to 10 kg and had been anesthetized with pentobarbital sodium (25-30 mg/kg), in groups each of which consisted of four beagles. Into one of the femoral veins of each of the beagles, a given test compound in a form dissolved in a 5% agueous solution of glucose was administered at a dose of from 0.1 to 1.0 mg/kg. Vertebral blood flow and femoral blood flow were measured using an electromagnetic flow probe connected to a magnetic flow meter.

[6] = Oryctolagus cuniculus, rabbit superior mesenteric artery contracted with potassium chloride, concentration for 50% relaxation
[7] = washed platelets of a normal volunteer, aggregation by collagen

Compound	EC50 [3, 6]	IC50 [4, 7]	further results
O=C1CCc2cc(OCCCCc3nnnn3C3CCCCC3)ccc2N1 [Cilostazol, reference compound]	–	–	Platelet aggregation inhibition rate (%) Collagen ([1]; oral 100 mg/kg): 12.4%; Platelet aggregation inhibition rate (%) Arachidonic acid ([1]; oral 300 mg/kg): 22.1%; Platelet aggregation inhibition rate (%) Collagen ([1]; oral 300 mg/kg): 74.7%
CCOC(=O)C1=CC2(CC)CCCN3CCc4c(n1c1cc(NS(=O)(=O)c5ccccc5)ccc41)C32 (stereo not shown) [Compound 1, ethyl 11-phenylsulfonylamino-apovin-caminate]	–	–	Platelet aggregation inhibition rate (%) Arachidonic acid ([1]; oral 100 mg/kg): 45.2%; Platelet aggregation inhibition rate (%) Collagen ([1]; oral 100 mg/kg): 85.4%; LD50 [2]: 85 mg/kg
CCC12C=C(C(=O)OC)n3c4c(c5ccc(NS(=O)(=O)c6ccccc6)cc53)CCN(CCC1)C42 (stereo not shown) [Compound 2, Methyl 11-phenylsulfonylamino-apovincaminate]	2100 nM	380 nM	–
CCC12C=C(C(=O)OC)n3c4c(c5ccc(NS(=O)(=O)c6ccc(Cl)cc6)cc53)CCN(CCC1)C42 (stereo not shown) [Compound 3, Methyl 11-(4-chlorophenyl)sulfonylamino-apovincaminate]	1700 nM	250 nM	–
CCOC(=O)C1=CC2(CC)CCCN3CCc4c(n1c1cc(NS(=O)(=O)c5ccc(Br)cc5)ccc41)C32 (stereo not shown) [Compound 4, Ethyl 11-(4-bromophenyl)sulfonylamino-apovincaminate]	1000 nM	760 nM	–
CCC12C=C(C(=O)OC(C)C)n3c4c(c5ccc(NS(=O)(=O)c6ccc(Cl)cc6)cc53)CCN(CCC1)C42 (stereo not shown) [Compound 5, Isopropyl 11-(4-chlorophenyl)sulfonylamino-apovincaminate]	1300 nM	940 nM	–
CCCOC(=O)C1=CC2(CC)CCCN3CCc4c(n1c1cc(NS(=O)(=O)c5ccc(Cl)cc5)ccc41)C32 (stereo not shown) [Compound 6, Propyl 11-(4-chlorophenyl)sulfonylamino-apovincaminate]	1300 nM	960 nM	–
CCOC(=O)C1=CC2(CC)CCCN3CCc4c(n1c1cc(NS(=O)(=O)c5ccc(F)cc5)ccc41)C32 (stereo not shown) [Compound 7, Ethyl 11-(4-fluorophenyl)sulfonylamino-apovincaminate]	2000 nM	910 nM	–
CCOC(=O)C1=CC2(CC)CCCN3CCc4c(n1c1cc(NS(=O)(=O)c5ccc(I)cc5)ccc41)C32 (stereo not shown) [Compound 8, Ethyl 11-(4-iodophenyl)sulfonylamino-apovincaminate]	1300 nM	810 nM	–
CCOC(=O)C1=CC2(CC)CCCN3CCc4c(n1c1cc(NS(=O)(=O)c5cc(Cl)ccc5Cl)ccc41)C32 (stereo not shown) [Compound 9, Ethyl 11-(2,5-dichlorophenyl)sulfonylamino-apovincaminate]	900 nM	880 nM	–
CCOC(=O)C1=CC2(CC)CCCN3CCc4c(n1c1cc(NS(=O)(=O)c5cccc6ccccc56)ccc41)C32 (stereo not shown) [Compound 10, Ethyl 11-(1-naphthalene)sulfonylamino-apovincaminate]	2000 nM	9200 nM	–
CCOC(=O)C1=CC2(CC)CCCN3CCc4c(n1c1cc(NS(=O)(=O)c5ccc(C)cc5)ccc41)C32 (stereo not shown) [Compound 11, Ethyl 11-(4-toluene)sulfonylamino-apovincaminate]	–	–	EC50 ([3]; Oryctolagus cuniculus): 1000 nM; Bloodflow increment (%) Femoral artery ([5]; dose 0.1 mg/kg): 2.9%; Bloodflow increment (%) Vertebral artery ([5]; dose 0.1 mg/kg): 5.4%; Bloodflow increment (%) Femoral artery ([5]; dose 0.3 mg/kg): 5.1%; Bloodflow increment (%) Vertebral artery ([5]; dose 0.3 mg/kg): 11.8%; Bloodflow increment (%) Femoral artery ([5]; dose 1.0 mg/kg): 4.5%; Bloodflow increment (%) Vertebral artery ([5]; dose 1.0 mg/kg): 32.5%; Platelet aggregation inhibition rate (%) Arachidonic acid ([1]; oral 100 mg/kg): 33.9%; Platelet aggregation inhibition rate (%) Collagen ([1]; oral 100 mg/kg): 49.1%; IC50 [4]: 50 nM; LD50 [2]: 125 mg/kg
CCOC(=O)C1=CC2(CC)CCCN3CCc4c(n1c1cc(NS(=O)(=O)c5c(C)cc(C)cc5C)ccc41)C32 (stereo not shown) [Compound 12, Ethyl 11-mesytylenesulfonylamino-apovincaminate]	–	–	Platelet aggregation inhibition rate (%) Collagen ([1]; oral 100 mg/kg): 13.0%; LD50 [2]: 50 mg/kg
CCOC(=O)C1=C[C@]2(CC)CCCN3CCc4c(n1c1cc(NS(=O)(=O)c5c(C(C)C)cc(C(C)C)cc5C(C)C)ccc41)[C@@H]32 [Compound 20, Ethyl 11-(2,4,6-triisopropylphenyl)sulfonylamino-apovincaminate]	–	–	EC50 ([3]; rabbit superior mesenteric artery contracted with potassium chloride, concentration for 50% relaxation): 930 nM
CCOC(=O)C1=CC2(CC)CCCN3CCc4c(n1c1cc(NS(=O)(=O)c5cccc([N+](=O)[O-])c5)ccc41)C32 (stereo not shown) [Compound 24, Ethyl 11-(3-nitrophenyl)sulfonylamno-apovincaminate]	–	–	EC50 ([3]; Oryctolagus cuniculus): 200 nM; IC50 [4]: 900 nM
CCOC(=O)C1=CC2(CC)CCCN3CCc4c(n1c1ccccc41)C32 (stereo not shown) [Vinpocetine phosphate, vinpocetine phosphate, reference compound]	–	–	LD50 [2]: 60 mg/kg

More lines, main results first:

EC50 [3, 6]	Compound	IC50 [4, 7]	further results
300 nM	CCOC(=O)C1=CC2(CC)CCCN3CCc4c(n1c1cc(NS(=O)(=O)Cc5ccccc5)ccc41)C32 (stereo not shown) [Compound 13, Ethyl 11-benzylsulfonylamino-apovincaminate]	4400 nM	–
1200 nM	CCOC(=O)C1=CC2(CC)CCCN3CCc4c(n1c1cc(NS(=O)(=O)c5ccc(NC(C)=O)cc5)ccc41)C32 (stereo not shown) [Compound 14, Ethyl 11-(4-acetylaminophenyl)sulfonyl-amino-apovincaminate]	470 nM	–
500 nM	CCOC(=O)C1=CC2(CC)CCCN3CCc4c(n1c1cc(NS(=O)(=O)c5cccc6cccnc56)ccc41)C32 (stereo not shown) [Compound 15, Ethyl 11-(8-quinoline)sulfonylamino-apovincaminate]	4100 nM	–
700 nM	CCOC(=O)C1=CC2(CC)CCCN3CCc4c(n1c1cc(NS(=O)(=O)c5ccc(OC)cc5)ccc41)C32 (stereo not shown) [Compound 16, Ethyl 11-(4-methoxyphenyl) sulfonylamino-apovincaminate]	1000 nM	–
710 nM	CCOC(=O)C1=CC2(CC)CCCN3CCc4c(n1c1cc(NS(=O)(=O)c5cc(C)ccc5C)ccc41)C32 (stereo not shown) [Compound 17, Ethyl 11-(2,5-dimethylphenyl)sulfonyl-amino-apovincaminate]	720 nM	–
630 nM	CCOC(=O)C1=CC2(CC)CCCN3CCc4c(n1c1cc(NS(=O)(=O)c5cccs5)ccc41)C32 (stereo not shown) [Compound 18, Ethyl 11-(2-thiophene)sulfonylamino-apovincaminate]	400 nM	–
200 nM	CCOC(=O)C1=CC2(CC)CCCN3CCc4c(n1c1cc(NS(=O)(=O)c5ccccc5C(=O)OC)ccc41)C32 (stereo not shown) [Compound 19, Ethyl 11-(2-methoxycarbonylphenyl)sulfonylamino-apovincaminate]	1800 nM	–
2100 nM	CCOC(=O)C1=CC2(CC)CCCN3CCc4c(n1c1cc(NS(=O)(=O)c5ccc(OC)cc5[N+](=O)[O-])ccc41)C32 (stereo not shown) [Compound 21, Ethyl 11-(4-methoxy-2-nitrophenyl)sulfonylamino-apovincaminate]	400 nM	–
860 nM	CCOC(=O)C1=CC2(CC)CCCN3CCc4c(n1c1cc(NS(=O)(=O)c5ccc6ccccc6c5)ccc41)C32 (stereo not shown) [Compound 22, Ethyl 11-(2-naphthalene)sulfonylamino-apovincaminate]	280 nM	–
1200 nM	CCOC(=O)C1=CC2(CC)CCCN3CCc4c(n1c1cc(NS(=O)(=O)c5c(F)c(F)c(F)c(F)c5F)ccc41)C32 (stereo not shown) [Compound 23, Ethyl 11-(2,3,4,5,6-pentafluorophenyl)sulfonylamino-apovincaminate]	580 nM	–

Reference: EP0864571A1, “APOVINCAMINIC ACID DERIVATIVE AND MEDICINE CONTAINING THE SAME” (Hidaka, Hiroyoshi, priority 1995, dated 1997)
